Data taken from ChEMBL document CHEMBL3991601, “The target landscape of clinical kinase drugs” (Science, 2017).
The source made the active and inactive calls. Cut-off read from the data, not from the text of the source, for most assays here: actives have a measured Kd and inactives only a lower limit.

Tests used:
Activin receptor type-1B = molecular target: T1, Activin receptor type-1B (Homo sapiens, UniProt P36896)
T1 sequence (P36896 whole entry): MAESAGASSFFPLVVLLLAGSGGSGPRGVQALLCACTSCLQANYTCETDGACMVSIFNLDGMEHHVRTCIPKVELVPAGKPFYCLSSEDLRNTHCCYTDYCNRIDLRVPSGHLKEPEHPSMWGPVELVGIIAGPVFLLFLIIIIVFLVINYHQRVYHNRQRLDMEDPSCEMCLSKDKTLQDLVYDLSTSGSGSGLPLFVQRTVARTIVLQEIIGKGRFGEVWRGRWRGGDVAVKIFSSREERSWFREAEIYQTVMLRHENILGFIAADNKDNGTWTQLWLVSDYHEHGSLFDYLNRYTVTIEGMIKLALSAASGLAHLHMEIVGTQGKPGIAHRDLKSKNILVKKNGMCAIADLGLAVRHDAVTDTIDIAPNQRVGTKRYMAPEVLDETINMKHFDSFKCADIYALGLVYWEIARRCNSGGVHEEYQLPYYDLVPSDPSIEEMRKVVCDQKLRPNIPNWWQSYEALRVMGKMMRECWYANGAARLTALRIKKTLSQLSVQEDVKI

[1] = molecular target: T2, Serine/threonine-protein kinase Nek1 (Homo sapiens, UniProt Q96PY6)
T2 sequence (Q96PY6 whole entry): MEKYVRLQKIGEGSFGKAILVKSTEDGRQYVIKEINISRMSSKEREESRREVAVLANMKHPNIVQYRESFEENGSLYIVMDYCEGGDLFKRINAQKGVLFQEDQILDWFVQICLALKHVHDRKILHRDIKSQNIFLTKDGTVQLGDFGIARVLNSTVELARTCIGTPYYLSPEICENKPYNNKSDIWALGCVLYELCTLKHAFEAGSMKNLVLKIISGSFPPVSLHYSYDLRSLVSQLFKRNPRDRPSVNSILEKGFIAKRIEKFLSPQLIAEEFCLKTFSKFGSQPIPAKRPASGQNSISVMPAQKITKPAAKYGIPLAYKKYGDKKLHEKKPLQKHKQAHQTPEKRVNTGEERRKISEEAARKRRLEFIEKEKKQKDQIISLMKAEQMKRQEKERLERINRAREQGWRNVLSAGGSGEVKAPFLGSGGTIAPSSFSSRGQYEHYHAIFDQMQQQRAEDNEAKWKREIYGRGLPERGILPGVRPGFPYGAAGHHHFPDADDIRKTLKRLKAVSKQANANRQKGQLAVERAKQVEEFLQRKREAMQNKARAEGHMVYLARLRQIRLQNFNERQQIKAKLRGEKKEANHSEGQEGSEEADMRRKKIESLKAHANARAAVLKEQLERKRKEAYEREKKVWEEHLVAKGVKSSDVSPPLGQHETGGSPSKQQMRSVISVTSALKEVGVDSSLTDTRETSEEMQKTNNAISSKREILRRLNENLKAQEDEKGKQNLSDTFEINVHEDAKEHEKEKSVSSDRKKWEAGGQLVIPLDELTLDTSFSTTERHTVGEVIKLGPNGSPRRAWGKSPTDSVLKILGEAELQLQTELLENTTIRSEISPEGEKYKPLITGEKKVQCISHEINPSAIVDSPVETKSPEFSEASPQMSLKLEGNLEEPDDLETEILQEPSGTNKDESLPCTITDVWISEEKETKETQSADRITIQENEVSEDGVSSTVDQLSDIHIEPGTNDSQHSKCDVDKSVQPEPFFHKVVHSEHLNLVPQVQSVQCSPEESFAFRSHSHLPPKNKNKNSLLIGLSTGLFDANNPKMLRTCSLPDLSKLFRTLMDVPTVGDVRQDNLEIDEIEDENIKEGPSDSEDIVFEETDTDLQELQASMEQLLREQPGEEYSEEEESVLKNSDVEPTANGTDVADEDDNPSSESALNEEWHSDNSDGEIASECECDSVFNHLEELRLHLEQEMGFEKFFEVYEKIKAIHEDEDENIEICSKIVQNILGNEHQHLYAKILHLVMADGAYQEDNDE

[2] = molecular target: T3, Mitogen-activated protein kinase kinase kinase 2 (Homo sapiens, UniProt Q9Y2U5)
T3 sequence (Q9Y2U5 whole entry): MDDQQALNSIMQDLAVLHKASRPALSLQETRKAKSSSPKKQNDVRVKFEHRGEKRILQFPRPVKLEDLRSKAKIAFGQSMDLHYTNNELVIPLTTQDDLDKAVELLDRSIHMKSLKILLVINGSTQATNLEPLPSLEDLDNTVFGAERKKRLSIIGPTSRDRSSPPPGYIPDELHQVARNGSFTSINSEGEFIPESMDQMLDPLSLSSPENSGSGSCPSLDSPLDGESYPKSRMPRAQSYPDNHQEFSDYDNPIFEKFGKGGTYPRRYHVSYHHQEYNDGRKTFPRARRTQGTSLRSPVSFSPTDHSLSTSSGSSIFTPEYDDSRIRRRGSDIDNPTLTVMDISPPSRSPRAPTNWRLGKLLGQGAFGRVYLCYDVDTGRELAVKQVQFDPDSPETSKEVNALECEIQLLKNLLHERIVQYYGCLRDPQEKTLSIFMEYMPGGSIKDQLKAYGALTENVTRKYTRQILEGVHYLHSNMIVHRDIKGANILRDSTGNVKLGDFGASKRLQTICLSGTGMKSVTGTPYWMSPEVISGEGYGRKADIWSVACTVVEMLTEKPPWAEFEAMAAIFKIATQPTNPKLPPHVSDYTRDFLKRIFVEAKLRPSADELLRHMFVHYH

[3] = molecular target: Adenylate kinase 2, mitochondrial (Homo sapiens, UniProt P54819)
[4] = molecular target: T4, Uncharacterized protein FLJ45252 (Homo sapiens, UniProt Q6ZSR9); details: read-out: Kd apparent; k-562, colo 205, sk-n-be(2) and mv-4-11
T4 sequence (Q6ZSR9 whole entry): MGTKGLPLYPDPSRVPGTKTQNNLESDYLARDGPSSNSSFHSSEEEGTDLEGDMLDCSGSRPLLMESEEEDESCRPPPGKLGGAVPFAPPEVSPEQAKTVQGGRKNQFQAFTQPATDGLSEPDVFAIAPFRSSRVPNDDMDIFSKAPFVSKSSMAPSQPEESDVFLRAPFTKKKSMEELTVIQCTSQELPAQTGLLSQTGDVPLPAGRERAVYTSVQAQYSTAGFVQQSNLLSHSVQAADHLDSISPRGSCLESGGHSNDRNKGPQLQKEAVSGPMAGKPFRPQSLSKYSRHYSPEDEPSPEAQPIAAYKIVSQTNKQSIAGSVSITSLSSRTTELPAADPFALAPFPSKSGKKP

[5] = molecular target: Cyclin-dependent kinase 13 (Homo sapiens, UniProt Q14004)
Cyclin-dependent kinase 13, sequence (Q14004 whole entry): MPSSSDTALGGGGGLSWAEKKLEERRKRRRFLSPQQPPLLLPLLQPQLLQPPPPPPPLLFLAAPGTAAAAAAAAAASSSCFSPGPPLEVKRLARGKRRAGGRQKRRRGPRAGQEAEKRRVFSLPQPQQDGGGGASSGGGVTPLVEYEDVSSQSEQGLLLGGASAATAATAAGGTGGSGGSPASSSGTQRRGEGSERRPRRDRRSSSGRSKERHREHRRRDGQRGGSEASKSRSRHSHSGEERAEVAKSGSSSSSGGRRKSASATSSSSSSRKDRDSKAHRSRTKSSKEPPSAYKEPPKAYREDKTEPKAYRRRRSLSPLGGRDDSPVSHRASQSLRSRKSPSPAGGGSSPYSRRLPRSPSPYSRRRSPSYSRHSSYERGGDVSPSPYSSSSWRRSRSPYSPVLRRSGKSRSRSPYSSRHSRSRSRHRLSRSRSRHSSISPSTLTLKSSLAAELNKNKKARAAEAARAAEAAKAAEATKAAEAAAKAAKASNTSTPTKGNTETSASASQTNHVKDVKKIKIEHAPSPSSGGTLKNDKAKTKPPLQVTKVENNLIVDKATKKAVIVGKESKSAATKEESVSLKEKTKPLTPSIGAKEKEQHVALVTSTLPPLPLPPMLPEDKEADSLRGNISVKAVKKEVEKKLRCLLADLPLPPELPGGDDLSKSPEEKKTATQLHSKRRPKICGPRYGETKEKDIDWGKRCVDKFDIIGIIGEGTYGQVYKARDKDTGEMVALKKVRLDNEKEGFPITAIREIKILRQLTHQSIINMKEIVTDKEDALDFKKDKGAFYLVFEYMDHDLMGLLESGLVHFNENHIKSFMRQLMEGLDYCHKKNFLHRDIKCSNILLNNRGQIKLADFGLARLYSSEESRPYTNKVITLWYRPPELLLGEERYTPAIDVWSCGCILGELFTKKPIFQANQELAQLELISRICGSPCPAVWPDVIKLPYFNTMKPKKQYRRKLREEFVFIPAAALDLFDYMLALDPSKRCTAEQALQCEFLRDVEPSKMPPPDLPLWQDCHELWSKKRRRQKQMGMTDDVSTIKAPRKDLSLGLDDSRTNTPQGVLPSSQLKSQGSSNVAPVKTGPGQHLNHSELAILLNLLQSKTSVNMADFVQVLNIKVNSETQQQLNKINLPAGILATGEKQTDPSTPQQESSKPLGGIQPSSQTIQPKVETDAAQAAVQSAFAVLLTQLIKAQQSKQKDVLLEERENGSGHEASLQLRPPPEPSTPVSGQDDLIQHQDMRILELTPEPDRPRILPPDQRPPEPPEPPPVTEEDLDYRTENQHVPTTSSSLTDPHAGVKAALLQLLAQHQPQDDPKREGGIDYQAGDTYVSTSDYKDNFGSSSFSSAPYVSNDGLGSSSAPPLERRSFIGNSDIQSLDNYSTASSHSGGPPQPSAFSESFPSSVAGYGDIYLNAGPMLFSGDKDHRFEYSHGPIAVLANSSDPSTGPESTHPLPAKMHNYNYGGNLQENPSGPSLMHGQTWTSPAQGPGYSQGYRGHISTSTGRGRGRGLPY
Note: in the data inactive means no Kd found up to 30 µM.

Row | SMILES | Kd (Activin receptor type-1B) | Kd [1] | Kd [2] | Kd [3] | Kd [4] | Kd [5]
1 | COc1cc(F)c(F)c(Nc2ccc(I)cc2F)c1NS(=O)(=O)C1(C[C@H](O)CO)CC1 [REFAMETINIB] | > 30 µM (inactive) | > 30 µM (inactive) | > 30 µM (inactive) | > 30 µM (inactive) | > 30 µM (inactive) | > 30 µM (inactive)
2 | O[C@H]1CC[C@H](Nc2ncc3nc(Nc4c(F)cc(F)cc4F)n([C@H]4CCOC4)c3n2)CC1 [TANZISERTIB] | > 30 µM (inactive) | > 30 µM (inactive) | > 30 µM (inactive) | > 30 µM (inactive) | > 30 µM (inactive) | > 30 µM (inactive)
3 | CCc1nc(C(N)=O)c(Nc2ccc(N3CCC(N4CCN(C)CC4)CC3)c(OC)c2)nc1NC1CCOCC1 [GILTERITINIB] | > 30 µM (inactive) | > 30 µM (inactive) | 0.536 µM (active) | > 30 µM (inactive) | 0.011 µM (active) | > 30 µM (inactive)
4 | C#Cc1cccc(Nc2ncnc3cc4c(cc23)OCCOCCOCCO4)c1 [ICOTINIB] | > 30 µM (inactive) | > 30 µM (inactive) | > 30 µM (inactive) | > 30 µM (inactive) | > 30 µM (inactive) | > 30 µM (inactive)
5 | COc1cc2ncnc(Nc3ccc(O)cc3)c2cc1OC [WHI-P131] | > 30 µM (inactive) | > 30 µM (inactive) | > 30 µM (inactive) | > 30 µM (inactive) | 1.54 µM (active) | > 30 µM (inactive)
6 | Cn1c(=O)n(-c2ccc(C(C)(C)C#N)cc2)c2c3cc(-c4cnc5ccccc5c4)ccc3ncc21 [DACTOLISIB] | > 30 µM (inactive) | > 30 µM (inactive) | > 30 µM (inactive) | > 30 µM (inactive) | > 30 µM (inactive) | > 30 µM (inactive)
7 | COc1ccc2c(OCc3nnc4ccc(-c5ccccc5)nn34)ccnc2c1 [AMG-208] | > 30 µM (inactive) | > 30 µM (inactive) | > 30 µM (inactive) | > 30 µM (inactive) | > 30 µM (inactive) | > 30 µM (inactive)
8 | CCN(CCCOc1ccc2c(Nc3cc(CC(=O)Nc4cccc(F)c4)n[nH]3)ncnc2c1)CCOP(=O)(O)O [BARASERTIB] | > 30 µM (inactive) | > 30 µM (inactive) | > 30 µM (inactive) | > 30 µM (inactive) | > 30 µM (inactive) | > 30 µM (inactive)
9 | CCN1CCN(Cc2ccc(Nc3ncc(F)c(-c4cc(F)c5nc(C)n(C(C)C)c5c4)n3)nc2)CC1 [ABEMACICLIB] | > 30 µM (inactive) | > 30 µM (inactive) | > 30 µM (inactive) | > 30 µM (inactive) | 0.088 µM (active) | > 30 µM (inactive)
10 | CC1(COc2ccc3c(c2)ncn3-c2ccc3cccc(N4CCC(N)CC4)c3n2)COC1 [CRENOLANIB] | > 30 µM (inactive) | > 30 µM (inactive) | > 30 µM (inactive) | > 30 µM (inactive) | > 30 µM (inactive) | > 30 µM (inactive)
11 | COc1cccc2cc(-c3nc([C@H]4CC[C@H](C(=O)O)CC4)n4ncnc(N)c34)[nH]c12 [OSI-027] | 0.549 µM (active) | > 30 µM (inactive) | > 30 µM (inactive) | > 30 µM (inactive) | > 30 µM (inactive) | > 30 µM (inactive)
12 | O=C(NC[C@H](O)CO)c1ccncc1Nc1ccc(I)cc1F [PIMASERTIB] | > 30 µM (inactive) | > 30 µM (inactive) | > 30 µM (inactive) | > 30 µM (inactive) | > 30 µM (inactive) | > 30 µM (inactive)
13 | CN1CCN(c2nc(C3=C(c4c[nH]c5ccccc45)C(=O)NC3=O)c3ccccc3n2)CC1 [SOTRASTAURIN] | > 30 µM (inactive) | > 30 µM (inactive) | > 30 µM (inactive) | > 30 µM (inactive) | > 30 µM (inactive) | > 30 µM (inactive)
14 | c1cc(OCCN2CCCCC2)cc(-c2n[nH]c3ccc(-c4nc[nH]n4)cc23)c1 [CC-401] | > 30 µM (inactive) | > 30 µM (inactive) | > 30 µM (inactive) | > 30 µM (inactive) | 2.53 µM (active) | > 30 µM (inactive)
15 | O=c1[nH]c([C@@H]2CCCN2)nc2c1oc1ccc(Cl)cc12 | > 30 µM (inactive) | > 30 µM (inactive) | > 30 µM (inactive) | > 30 µM (inactive) | > 30 µM (inactive) | > 30 µM (inactive)
16 | COc1ccc(-c2ccc3ncc4c(c3c2)n(-c2ccc(N3CCNCC3)c(C(F)(F)F)c2)c(=O)n4C)cn1 [BGT-226 FREE BASE] | > 30 µM (inactive) | > 30 µM (inactive) | > 30 µM (inactive) | > 30 µM (inactive) | > 30 µM (inactive) | > 30 µM (inactive)
17 | O=S(=O)(c1cccc2c(O)nccc12)N1CCCNCC1 [HYDROXYFASUDIL] | > 30 µM (inactive) | > 30 µM (inactive) | > 30 µM (inactive) | > 30 µM (inactive) | > 30 µM (inactive) | > 30 µM (inactive)
18 | CC(C)CC(=O)Nc1[nH]nc2c1CN(C(=O)C1CCN(C)CC1)C2(C)C [PHA-793887] | > 30 µM (inactive) | > 30 µM (inactive) | > 30 µM (inactive) | > 30 µM (inactive) | > 30 µM (inactive) | 3.58 µM (active)
19 | C[C@]1(O)C[C@@H](c2nc(-c3ccc4ccc(-c5ccccc5)nc4c3)c3c(N)nccn32)C1 [LINSITINIB] | > 30 µM (inactive) | > 30 µM (inactive) | > 30 µM (inactive) | > 30 µM (inactive) | > 30 µM (inactive) | > 30 µM (inactive)
